Literature values as cited in publication PMC4060611 (Inorganic Chemistry, 2014).
Where a name gives a salt, the structure may show the parent alone. Read-outs that look alike come from different tables or passages of the source.

Assays:
[1] = not given; remark: listed apart in the source
[2] = 0 to 500 μM, 72 h incubation

## CCN1C(=CC=CC2=[N+](CCCCCC(=O)O)c3ccc(S(=O)(=O)O)cc3C2(C)C)C(C)(C)c2cc(S(=O)(=O)[O-])ccc21 [Cy3]
In PBS
  quantum yield: 4%

## CCN1C(=CC=CC=CC2=[N+](CCCCCC(=O)O)c3ccc(S(=O)(=O)O)cc3C2(C)C)C(C)(C)c2cc(S(=O)(=O)[O-])ccc21 [Cy5]
In PBS
  quantum yield: 30%

## NC(=O)CN1CCN(CC(N)=O)CCN(CC(N)=O)CCN(CC(N)=O)CC1.[Eu+3] [[Eu-DOTAm]^3+]
[1]
  cell association relative to [Eu-DOTA]−: 5 times

## C=C[C@H]1C[N@@]2CC[C@H]1C[C@H]2[C@H](O)c1ccnc2ccc(OC)cc12 [quinine sulfate]
In 0.1 M sulfuric acid
  quantum yield Φr: 0.577

## Texas Red
In water
  quantum yield: 30%

## europium compound of 1,4,7,10-tetraazacyclododecane-1,4,7,10-tetraacetic acid [[Eu-DOTA]^−]
[2]
  effect on cell viability: negligible effect
[1]
  cellular accumulation: negligible
